Source: patent US8202879B2, “Quinazoline derivatives having tyrosine kinase inhibitory activity” (Shionogi & Co., Ltd., priority 2005, dated 2012)
Where two headings read alike, the source gives them in different places.

How the values were obtained:
EGFR = biological target: T1, EGFR (Homo sapiens, UniProt P00533); test: Enzyme inhibitory activity on EGFR (time resolution fluorescence, biotinylated poly-Glu-Tyr substrate); format: biochemical
T1 construct: purchased Carna Biosciences, Inc; host or cells: insect cell expression system
Protocol: (§1) Enzyme Inhibitory Activity of Test Compound on EGFR and HER2
(§2) EGFR and HER2 purified from an insect cell expression system, and a biotinylated substrate (synthetic peptide of glutamic acid:tyrosine=4:1) were added to a 384-well plate with ATP added thereto, and an enzyme reaction was performed at room temperature. After completion of the enzyme reaction, an anti-phosphorylated tyrosine antibody labeled with europium and streptavidin labeled with alphycocyanine were added, and a phosphorylated tyrosine residue was quantified by a time resolution fluorescence method.
(§3) A test compound was adjusted to 10 mM using DMSO.
(§4) Further, using 10% DMSO solution, a 1 mM solution was prepared, and this was regarded as a maximum concentration point.
(§5) As a dilution series, a 4-fold dilution series was prepared to a 10 stage.
(§6) As a buffer, TBS containing 10 mM MgCl2, 5 mM MnCl2, 0.2 mM Na3VO4, and 0.1% BSA was used.
(§7) As EGFR and HER2 enzymes, those purified from an insect cell expression system were purchased from Carna Biosciences, Inc.
An EGFR enzyme solution was adjusted to 250 ng/ml using a buffer.
(§8) As a substrate, biotinylated poly-Glu-Tyr (4:1, manufactured by CISbio) was used. A concentration was adjusted to 3.125 μg/ml using the above buffer.
An ATP concentration on study of the EGFR enzyme was adjusted to 125 μM using the buffer.
(§9) For preparing a detection reagent, TBS containing 30 mM EDTA, 0.8M KF and 0.1% BSA was used.
(§10) An anti-phosphorylated tyrosine antibody labeled with europium, PT-66K (CISbio) was adjusted to 195 ng/ml, and streptavidin labeled with alphycocyanine, SA-XL (CISbio) was adjusted to 5 μg/ml.
(§11) As an assay plate, a 384-well plate was used. Per one well, 1.1 μl of a test compound, 4 μl of a substrate solution, and 4 μl of an enzyme solution were added, and 2 μl of an ATP solution was added to initiate an enzyme reaction. The enzyme reaction was performed at room temperature for 60 minutes, and 10 μl of a detection reagent was added to complete the reaction. One hour after completion of the reaction, time resolution fluorescent measurement was performed.

HER2 = biological target: T2, HER2 (Homo sapiens, UniProt P04626); test: Enzyme inhibitory activity on HER2 (time resolution fluorescence, biotinylated poly-Glu-Tyr substrate); format: biochemical
T2 construct: purchased Carna Biosciences, Inc; host or cells: insect cell expression system
Protocol: as §1, §2, §3, §4, §5, §6, §7
HER2 kinase was adjusted to 1000 ng/ml using a buffer.
as §8
An ATP concentration on study of the HER2 enzyme was adjusted to 290 μM.
as §9, §10, §11

BT-474 = test: In vitro cell proliferation inhibition, WST assay; format: cell-based, human; details: BT-474 cells, cultured for 3 days, read-out: BT-474 (nM) proliferation inhibitory activity (IC50 value)
Protocol: Test of In Vitro Cell Proliferation Inhibition of Test Compound
As a human-derived cancer cell strain, BT-474 was used. Cells were all cultured in a 37° C., 5% CO2 incubator in a medium in which 10% bovine fetal serum (ICN) and 50 units ml penicillin/60 μg/ml streptomycin solution (GIBCO) were added to Dulbecco's Modified Essential Medium (DMEM, Nacalai Tesque, Inc).

[1] = EGFR purified from insect cell expression system, ATP solution 125 μM, room temperature, 60 minutes
[2] = HER2 purified from insect cell expression system, ATP solution 290 μM, room temperature, 60 minutes
[3] = enzyme reaction at room temperature for 60 minutes

T1 sequence (P00533 25-1210): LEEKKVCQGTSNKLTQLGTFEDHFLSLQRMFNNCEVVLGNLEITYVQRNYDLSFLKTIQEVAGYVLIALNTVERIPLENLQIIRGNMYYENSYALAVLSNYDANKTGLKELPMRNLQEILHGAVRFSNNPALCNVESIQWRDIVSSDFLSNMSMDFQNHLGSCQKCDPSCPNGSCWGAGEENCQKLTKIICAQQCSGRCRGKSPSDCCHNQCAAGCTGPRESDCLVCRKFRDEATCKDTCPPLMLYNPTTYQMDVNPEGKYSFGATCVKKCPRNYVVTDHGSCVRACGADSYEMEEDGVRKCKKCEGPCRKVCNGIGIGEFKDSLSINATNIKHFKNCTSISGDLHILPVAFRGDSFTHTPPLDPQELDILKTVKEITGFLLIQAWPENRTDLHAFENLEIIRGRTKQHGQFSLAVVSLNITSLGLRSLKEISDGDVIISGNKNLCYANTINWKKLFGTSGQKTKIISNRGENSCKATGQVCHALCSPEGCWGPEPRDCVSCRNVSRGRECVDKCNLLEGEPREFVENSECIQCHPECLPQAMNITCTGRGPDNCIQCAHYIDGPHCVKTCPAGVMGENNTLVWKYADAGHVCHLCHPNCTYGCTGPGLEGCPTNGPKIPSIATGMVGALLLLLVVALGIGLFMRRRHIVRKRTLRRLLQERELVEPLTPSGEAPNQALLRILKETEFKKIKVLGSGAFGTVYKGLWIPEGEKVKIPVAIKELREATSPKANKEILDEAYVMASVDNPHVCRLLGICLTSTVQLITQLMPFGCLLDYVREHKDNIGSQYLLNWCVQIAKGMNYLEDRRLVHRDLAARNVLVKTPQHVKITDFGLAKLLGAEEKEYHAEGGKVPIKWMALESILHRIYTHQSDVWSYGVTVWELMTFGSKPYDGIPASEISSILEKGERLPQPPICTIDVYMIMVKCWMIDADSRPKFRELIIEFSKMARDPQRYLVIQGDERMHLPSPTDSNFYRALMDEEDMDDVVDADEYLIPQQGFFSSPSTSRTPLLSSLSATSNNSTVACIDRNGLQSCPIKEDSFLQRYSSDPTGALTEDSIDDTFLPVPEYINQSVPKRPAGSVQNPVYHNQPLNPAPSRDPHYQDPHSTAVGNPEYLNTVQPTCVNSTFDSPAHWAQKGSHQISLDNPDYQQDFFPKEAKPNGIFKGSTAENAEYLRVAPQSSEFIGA
T2 sequence (P04626 23-1255): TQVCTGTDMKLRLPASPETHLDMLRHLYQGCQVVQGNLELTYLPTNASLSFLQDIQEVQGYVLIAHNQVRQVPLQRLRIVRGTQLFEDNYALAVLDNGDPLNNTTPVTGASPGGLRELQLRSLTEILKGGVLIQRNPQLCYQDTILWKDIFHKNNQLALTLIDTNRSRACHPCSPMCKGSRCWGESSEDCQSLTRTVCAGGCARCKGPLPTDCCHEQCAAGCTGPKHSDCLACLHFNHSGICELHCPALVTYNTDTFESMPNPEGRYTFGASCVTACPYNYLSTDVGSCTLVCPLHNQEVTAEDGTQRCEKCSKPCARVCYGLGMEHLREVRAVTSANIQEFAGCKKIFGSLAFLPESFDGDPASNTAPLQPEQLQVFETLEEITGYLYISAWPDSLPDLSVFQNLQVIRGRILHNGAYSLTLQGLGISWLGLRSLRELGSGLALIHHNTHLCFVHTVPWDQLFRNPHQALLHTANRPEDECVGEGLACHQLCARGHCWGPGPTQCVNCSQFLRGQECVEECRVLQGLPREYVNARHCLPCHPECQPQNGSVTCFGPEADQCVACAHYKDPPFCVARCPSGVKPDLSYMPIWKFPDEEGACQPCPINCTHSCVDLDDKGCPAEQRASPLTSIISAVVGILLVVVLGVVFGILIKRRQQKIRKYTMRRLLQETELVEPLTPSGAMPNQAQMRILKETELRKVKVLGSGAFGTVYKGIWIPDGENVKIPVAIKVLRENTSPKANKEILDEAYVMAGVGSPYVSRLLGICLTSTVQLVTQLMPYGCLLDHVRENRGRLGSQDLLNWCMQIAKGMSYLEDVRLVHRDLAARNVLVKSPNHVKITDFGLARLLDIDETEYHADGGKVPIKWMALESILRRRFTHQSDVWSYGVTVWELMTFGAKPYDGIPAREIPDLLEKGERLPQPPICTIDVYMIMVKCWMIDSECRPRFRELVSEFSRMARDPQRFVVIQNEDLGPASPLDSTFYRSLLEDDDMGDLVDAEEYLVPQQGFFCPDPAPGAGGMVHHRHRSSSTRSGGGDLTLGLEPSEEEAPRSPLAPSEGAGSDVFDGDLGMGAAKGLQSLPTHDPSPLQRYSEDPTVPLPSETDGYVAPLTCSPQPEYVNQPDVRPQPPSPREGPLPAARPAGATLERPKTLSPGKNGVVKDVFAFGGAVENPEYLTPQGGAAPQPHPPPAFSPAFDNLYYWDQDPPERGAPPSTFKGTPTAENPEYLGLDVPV

Structure (SMILES) | IC50 (EGFR; [1]) [nM] | IC50 (HER2; [2]) [nM] | IC50 (BT-474) [nM] | IC50 (EGFR; [3]) [nM] | IC50 (HER2; [3]) [nM] | IC50 (BT-474; Homo sapiens, BT-474, 72 h) [nM]
CC#C/C(=N\O[C@H]1CN[C@H](CO)C1)c1ccc2ncnc(Nc3ccc(OCc4cccc(F)c4)c(Cl)c3)c2c1 [VIII-92] | 32 | 36 | 29 |  |  | 
CNCCO/N=C(\C#CCOC)c1ccc2ncnc(Nc3ccc(OCc4ccccn4)c(Cl)c3)c2c1 [VIII-180] |  |  |  | 7.8 | 6 | 5
CC#C/C(=N\OCCNC)c1ccc2ncnc(Nc3ccc(OCc4cccnc4)c(Cl)c3)c2c1 [VIII-216] |  |  |  | 22 | 7 | 32
CC#C/C(=N\OCCNC1CC1)c1ccc2ncnc(Nc3ccc(OCc4ccccn4)c(Cl)c3)c2c1 [VIII-136] |  |  |  | 21 | 21 | 53
CC#C/C(=N\OC[C@H]1CCCN1C)c1ccc2ncnc(Nc3ccc(OCc4cccc(F)c4)c(Cl)c3)c2c1 [VIII-91] | 74 | 83 | 24 |  |  | 
CC#C/C(=N\OCCNCCS(C)(=O)=O)c1ccc2ncnc(Nc3ccc(OCc4cccc(F)c4)c(Cl)c3)c2c1 [VIII-45] | 58 | 152 | 13 |  |  | 
CC#C/C(=N\OCCNC(C)COC)c1ccc2ncnc(Nc3ccc(OCc4cccc(F)c4)c(Cl)c3)c2c1 (stereo not drawn) [VIII-44] | 26 | 6.3 | 28 |  |  | 
CNCCO/N=C(\C#CCOC)c1ccc2ncnc(Nc3ccc(OCc4cccc(F)c4)c(Cl)c3)c2c1 [VIII-123] |  |  | 31 | 24 | 38 | 
CC#C/C(=N\OCCN1CCC(O)CC1)c1ccc2ncnc(Nc3ccc(OCc4ccccn4)c(Cl)c3)c2c1 [VIII-165] |  |  |  | 11 | 11 | 23
CC#C/C(=N\OC[C@H]1CNC[C@H](C)O1)c1ccc2ncnc(Nc3ccc(OCc4ccccn4)c(Cl)c3)c2c1 [VIII-178] |  |  |  | 8.1 | 8.2 | 36
CC#C/C(=N\OCCN1CCCC1)c1ccc2ncnc(Nc3ccc(OCc4ccccn4)c(Cl)c3)c2c1 [VIII-148] |  |  |  | 6.1 | 5.8 | 26
CC#C/C(=N\OC[C@@H]1CCCN1CC(=O)O)c1ccc2ncnc(Nc3ccc(OCc4cccc(F)c4)c(Cl)c3)c2c1 [VIII-89] | 27 | 24 |  |  |  | 25
CC#C/C(=N\OC[C@@H]1CNC[C@@H](C)O1)c1ccc2ncnc(Nc3ccc(OCc4cccc(F)c4)c(Cl)c3)c2c1 [VIII-110] | 29 | 35 | 21 |  |  | 
CC#C/C(=N\OC[C@@H]1C[C@H](O)CN1)c1ccc2ncnc(Nc3ccc(OCc4ccccn4)c(Cl)c3)c2c1 [VIII-152] |  |  |  | 2.4 | 4.3 | 22
CC#C/C(=N\OC[C@H]1CN(C)CCN1)c1ccc2ncnc(Nc3ccc(OCc4cccc(F)c4)c(Cl)c3)c2c1 [VIII-113] | 9.7 | 12 |  |  |  | 13
CC#C/C(=N\OC[C@@H]1CNCCO1)c1ccc2ncnc(Nc3ccc(OCc4ccccn4)c(Cl)c3)c2c1 [VIII-168] |  |  |  | 8 | 9 | 44
CC#C/C(=N\OCCNC[C@H]1CCC(=O)N1)c1ccc2ncnc(Nc3ccc(OCc4cccc(F)c4)c(Cl)c3)c2c1 [VIII-52] | 19 | 28 | 9 |  |  | 
CC#C/C(=N\OC[C@H]1CCCN1CCO)c1ccc2ncnc(Nc3ccc(OCc4cccc(F)c4)c(Cl)c3)c2c1 [VIII-90] | 93 | 97 | 9 |  |  | 
CC#C/C(=N\OC[C@@H]1CNC[C@H](C)O1)c1ccc2ncnc(Nc3ccc(OCc4cccc(F)c4)c(Cl)c3)c2c1 [VIII-109] | 23 | 18 |  |  |  | 40
CC#C/C(=N\OCCN1CCS(=O)(=O)CC1)c1ccc2ncnc(Nc3ccc(OCc4ccccn4)c(Cl)c3)c2c1 [VIII-162] |  |  |  | 51 | 62 | 42
CC#C/C(=N\OCCN1CCN(C)CC1)c1ccc2ncnc(Nc3ccc(OCc4ccccn4)c(Cl)c3)c2c1 [VIII-164] |  |  |  | 7.3 | 7.6 | 31
